Assay [1] deals with T1, GCN2 (Homo sapiens, UniProt Q9P2K8). Put plainly: GCN2 enzyme assay (TR-FRET Lanthascreen, GFP-eIF2alpha phosphorylation). Type of assay: biochemical. The following applies: 10 μM ATP, 80 nM GFP-eIF2a, 30 nM GCN2. The procedure, abridged: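 Kinase reaction with 10 μM ATP and 80 nM GFP-labelled eIF2alpha substrate at room temperature, stopped with EDTA. Phospho-eIF2alpha detected by TR-FRET between antibody and GFP-substrate, excitation at 340 nm.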
On the technique in general: Time-resolved FRET reads energy transfer from a long-lived donor to a nearby acceptor.
Target sequence in this assay (Q9P2K8 whole entry, species assumed): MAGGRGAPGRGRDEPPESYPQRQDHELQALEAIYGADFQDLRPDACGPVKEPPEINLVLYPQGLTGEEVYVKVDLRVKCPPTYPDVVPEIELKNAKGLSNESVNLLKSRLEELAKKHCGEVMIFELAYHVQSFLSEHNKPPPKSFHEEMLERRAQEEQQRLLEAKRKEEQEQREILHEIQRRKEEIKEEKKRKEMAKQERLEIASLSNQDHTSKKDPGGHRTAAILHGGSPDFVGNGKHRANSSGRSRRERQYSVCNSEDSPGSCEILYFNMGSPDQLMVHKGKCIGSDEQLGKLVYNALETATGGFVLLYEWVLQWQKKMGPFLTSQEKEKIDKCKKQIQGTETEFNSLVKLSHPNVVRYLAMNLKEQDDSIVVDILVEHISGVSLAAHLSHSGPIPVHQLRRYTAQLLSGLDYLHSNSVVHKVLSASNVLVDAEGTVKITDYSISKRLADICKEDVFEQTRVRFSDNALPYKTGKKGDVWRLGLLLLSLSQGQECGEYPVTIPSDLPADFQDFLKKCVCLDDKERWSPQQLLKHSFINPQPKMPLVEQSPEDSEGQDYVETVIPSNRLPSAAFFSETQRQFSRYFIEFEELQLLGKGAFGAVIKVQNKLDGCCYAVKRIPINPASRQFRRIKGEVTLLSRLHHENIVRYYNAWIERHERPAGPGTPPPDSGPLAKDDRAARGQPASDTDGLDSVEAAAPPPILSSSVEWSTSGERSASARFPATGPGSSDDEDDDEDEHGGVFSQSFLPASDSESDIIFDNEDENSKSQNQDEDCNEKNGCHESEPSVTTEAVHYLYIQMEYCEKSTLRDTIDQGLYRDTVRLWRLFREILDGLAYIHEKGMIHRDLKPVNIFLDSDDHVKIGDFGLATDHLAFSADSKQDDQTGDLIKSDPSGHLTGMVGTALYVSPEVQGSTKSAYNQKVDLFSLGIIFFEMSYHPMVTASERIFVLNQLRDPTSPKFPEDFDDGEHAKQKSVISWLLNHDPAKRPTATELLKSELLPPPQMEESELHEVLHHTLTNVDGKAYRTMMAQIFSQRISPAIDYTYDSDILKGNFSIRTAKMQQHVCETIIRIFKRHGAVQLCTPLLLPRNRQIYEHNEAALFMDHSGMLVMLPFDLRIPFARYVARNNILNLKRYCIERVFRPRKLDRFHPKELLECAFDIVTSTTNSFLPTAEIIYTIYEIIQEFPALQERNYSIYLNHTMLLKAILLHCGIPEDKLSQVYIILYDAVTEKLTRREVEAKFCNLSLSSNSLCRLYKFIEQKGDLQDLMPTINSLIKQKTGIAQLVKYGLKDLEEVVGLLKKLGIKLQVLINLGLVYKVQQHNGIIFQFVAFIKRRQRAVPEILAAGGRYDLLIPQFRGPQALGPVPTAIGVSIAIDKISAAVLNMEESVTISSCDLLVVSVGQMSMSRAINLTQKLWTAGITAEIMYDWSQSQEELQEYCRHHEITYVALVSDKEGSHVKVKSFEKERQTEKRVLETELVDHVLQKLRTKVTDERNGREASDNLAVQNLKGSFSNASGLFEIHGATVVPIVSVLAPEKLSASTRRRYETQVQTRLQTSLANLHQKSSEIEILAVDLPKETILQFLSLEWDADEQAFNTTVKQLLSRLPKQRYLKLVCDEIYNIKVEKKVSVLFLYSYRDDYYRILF

Assay [2] has as its target T1, GCN2. Put plainly: Cellular assay of GCN2 activity (phospho-eIF2alpha immunocytochemistry after tryptophanol). Type of assay: cell-based. On the set-up: endogenous in cells; host or cells: U2OS. The note with it: Human U2OS cells, 2 h compound, 600 μM tryptophanol 30 min. In a few lines: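 Readout in human U2OS cells: compound pretreatment 2 h, then tryptophanol (600 μM final) for 30 min to trigger GCN2 signalling. Fixed, permeabilised cells quantified by immunocytochemistry for phosphorylation, normalised to DMSO controls as % effect; IC50 from concentration-response.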
Target sequence in this assay (Q9P2K8 whole entry): as the sequence (Q9P2K8 whole entry, species assumed) above

Assay [3] has as its target GSK3β(h) (Homo sapiens, UniProt P49841). Put plainly: GSK3β radiometric kinase assay (33P-ATP, phospho GS2 peptide). In kind it is biochemical. The note with it: read-out: IC50 GSK3β (enzyme assay). As to the method: GSK3β(h) is incubated with 8 mM MOPS pH 7,0, 0,2 mM EDTA, 20 μM
[…](p)EDEEE (phosphor GS2 peptide), 10 mM Mg-acetate and [gamma-33P-ATP](specific activity approx. 500 cpm/Pmol, concentration as required). The reaction is initiated by the addition of the MgATP. After incubation for 40 minutes at the room temperature, the Reaction is stopped by the addition of 3% phosphoric acid solution. 10 μL of reaction is then spotted onto a P30 filtermat and washed three times for 5 minutes in 50 mM phosphoric acid and once in methanol prior to drying and scintillation counting.

The target in assay [4] is GSK3α(h) (Homo sapiens, UniProt P49840). Put plainly: GSK3α radiometric kinase assay (33P-ATP, phospho GS2 peptide). The note with it: read-out: IC50 GSK3α (enzyme assay). Type of assay: biochemical. In a few lines: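 Human GSK3α incubated with 20 μM phospho-GS2 peptide in 8 mM MOPS pH 7,0, 10 mM Mg-acetate and [γ-33P]ATP (concentration as required), started with MgATP. After 40 minutes at room temperature, stopped with phosphoric acid; 33P incorporation measured by filtermat spotting and scintillation counting.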

19 compounds from patent US9855268B2, “Triazolo[4,5-d]pyrimidine derivatives” (Merck Patent GmbH, priority 2013, dated 2018) can be followed below.

Sequence of GSK3α(h) (P49840 whole entry): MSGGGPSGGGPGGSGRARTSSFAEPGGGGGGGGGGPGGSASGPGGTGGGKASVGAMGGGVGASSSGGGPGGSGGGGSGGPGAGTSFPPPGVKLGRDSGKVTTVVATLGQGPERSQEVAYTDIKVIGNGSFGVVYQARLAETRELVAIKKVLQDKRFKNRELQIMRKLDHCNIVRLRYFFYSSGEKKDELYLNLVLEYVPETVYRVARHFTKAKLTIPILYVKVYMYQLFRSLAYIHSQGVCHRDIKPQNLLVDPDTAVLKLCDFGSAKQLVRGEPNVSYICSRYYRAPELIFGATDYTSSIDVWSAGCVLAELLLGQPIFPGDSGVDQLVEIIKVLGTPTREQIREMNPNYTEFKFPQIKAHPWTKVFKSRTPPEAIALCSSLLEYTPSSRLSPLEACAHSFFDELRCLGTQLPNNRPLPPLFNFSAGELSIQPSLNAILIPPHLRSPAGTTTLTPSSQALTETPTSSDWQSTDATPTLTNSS
Sequence of GSK3β(h) (P49841 whole entry): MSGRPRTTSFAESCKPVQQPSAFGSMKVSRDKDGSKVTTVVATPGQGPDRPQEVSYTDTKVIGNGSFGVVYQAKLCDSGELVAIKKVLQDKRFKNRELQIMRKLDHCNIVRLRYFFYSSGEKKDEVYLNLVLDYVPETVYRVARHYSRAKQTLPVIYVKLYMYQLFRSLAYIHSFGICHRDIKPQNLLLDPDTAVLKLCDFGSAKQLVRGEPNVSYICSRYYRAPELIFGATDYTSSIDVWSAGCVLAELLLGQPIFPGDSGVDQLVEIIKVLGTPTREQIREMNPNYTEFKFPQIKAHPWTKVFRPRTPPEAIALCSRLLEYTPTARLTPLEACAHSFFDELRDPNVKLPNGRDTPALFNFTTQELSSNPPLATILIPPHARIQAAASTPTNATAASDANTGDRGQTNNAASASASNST

Usually IC50 stands for the concentration that gives 50% inhibition. In the case of `Cc1cc2cc(-n3nnc4cnc(N[C@@H]5CC[C@@H](C(N)=O)C5)nc43)ccc2o1` [A180, (1R,3R)-3-[3-(2-methyl-benzofuran-5-yl)-3H-[1,2,3]triazolo[4,5-d]pyrimidin-5-ylamino]-cyclopentanecarboxylic acid amide], the IC50 in assay [1] was below 1000 nM; in assay [2], 1000 to 5000 nM; in assay [3], below 1000 nM; in assay [4] it was below 1000 nM.
As for `COCCOc1ccc(-n2nnc3cnc(N[C@@H]4CC[C@@H](C(N)=O)C4)nc32)cc1` [A135, (1R,3R)-3-{3-[4-(2-methoxy-ethoxy)-phenyl]-3H-[1,2,3]triazolo[4,5-d]pyrimidin-5-ylamino}-cyclopentanecarboxylic acid amide], the IC50 was below 1000 nM in assay [1], 1000 to 5000 nM in assay [2], below 1000 nM in assay [3] and below 1000 nM in assay [4].
`CCOCCn1cc(-c2ccc(-n3nnc4cnc(N[C@@H]5CC[C@@H](C(=O)NCCOC)C5)nc43)cc2)cn1` [A225, (1R,3R)-3-(3-{4-[1-(2-ethoxy-ethyl)-1H-pyrazol-4-yl]-phenyl}-3H-[1,2,3]triazolo[4,5-d]pyrimidin-5-ylamino)-cyclopentanecarboxylic acid (2-methoxy-ethyl)-amide]: the IC50 is below 1000 nM in assay [1], 1000 to 5000 nM in assay [2], below 1000 nM in assay [3] and below 1000 nM in assay [4].
Turning to `NC(=O)[C@@H]1CC[C@@H](Nc2ncc3nnn(-c4ccc(OC[C@@H](O)C(F)(F)F)cc4)c3n2)C1` [A155, (1R,3R)-3-{3-[4-((R)-3,3,3-trifluoro-2-hydroxy-propoxy)-phenyl]-3H-[1,2,3]triazolo[4,5-d]pyrimidin-5-ylamino}-cyclopentanecarboxylic acid amide], the IC50 in assay [1] is below 1000 nM; in assay [2], 1000 to 5000 nM; in assay [3], below 1000 nM; in assay [4], below 1000 nM.
On to `CCOCCOc1ccc2cc(-n3nnc4cnc(N[C@@H]5CC[C@@H](C(N)=O)C5)nc43)ccc2n1` [A182, (1R,3R)-3-{3-[2-(2-ethoxy-ethoxy)-quinolin-6-yl]-3H-[1,2,3]triazolo[4,5-d]-pyrimidin-5-ylamino}-cyclopentanecarboxylic acid amide], for which the IC50 in assay [1] was below 1000 nM; in assay [2], 1000 to 5000 nM; in assay [3], below 1000 nM; in assay [4], below 1000 nM.
As for `Cc1ccc2cc(-n3nnc4cnc(N[C@@H]5CC[C@@H](C(N)=O)C5)nc43)ccc2n1` [A187, (1R,3R)-3-[3-(2-methyl-quinolin-6-yl)-3H-[1,2,3]triazolo[4,5-d]-pyrimidin-5-ylamino]-cyclopentanecarboxylic acid amide], the IC50 in assay [1], in assay [2], in assay [3] and in assay [4] was below 1000 nM each time.
`COc1ccc(-n2nnc3cnc(N[C@@H]4CC[C@@H](C(=O)NCCN5CCN(C)CC5)C4)nc32)cc1` [A244, (1R,3R)-3-[3-(4-methoxy-phenyl)-3H-[1,2,3]triazolo[4,5-d]pyrimidin-5-ylamino]-cyclopentanecarboxylic acid [2-(4-methyl-piperazin-1-yl)-ethyl]-amide]: the IC50 in assay [1], in assay [2], in assay [3] and in assay [4] was below 1000 nM throughout.
With `CCOCCn1cc(-c2ccc(-n3nnc4cnc(N[C@@H]5CC[C@@H](O)C5)nc43)cc2)cn1` [A227, (1R,3R)-3-(3-{4-[1-(2-ethoxy-ethyl)-1H-pyrazol-4-yl]-phenyl}-3H-[1,2,3]triazolo[4,5-d]pyrimidin-5-ylamino)-cyclopentanol], the IC50 in assay [1] was below 1000 nM; in assay [2], 1000 to 5000 nM; in assay [3] it was below 1000 nM; in assay [4], below 1000 nM.
Take `NC(=O)[C@@H]1CC[C@@H](Nc2ncc3nnn(-c4ccc(-c5cnn(CCO)c5)c(F)c4)c3n2)C1` [A260, (1R,3R)-3-(3-{3-fluoro-4-[1-(2-hydroxy-ethyl)-1H-pyrazol-4-yl]-phenyl}-3H-[1,2,3]triazolo[4,5-d]pyrimidin-5-ylamino)-cyclopentanecarboxylic acid amide]: the IC50 is below 1000 nM in assay [1], 5000 to 10000 nM in assay [2], below 1000 nM in assay [3] and below 1000 nM in assay [4].
Take `CC(C)(O)Cn1cc(-c2ccc(-n3nnc4cnc(N[C@@H]5CC[C@@H](O)C5)nc43)cc2)cn1` [A232, (1R,3R)-3-(3-{4-[1-(2-hydroxy-2-methyl-propyl)-1H-pyrazol-4-yl]-phenyl}-3H-[1,2,3]triazolo[4,5-d]pyrimidin-5-ylamino)-cyclopentanol]: the IC50 in assay [1] was below 1000 nM; in assay [2] it was 5000 to 10000 nM; in assay [3], below 1000 nM; in assay [4], below 1000 nM.
`CCOc1ccc(-n2nnc3cnc(N[C@@H]4CC[C@@H](C(=O)NCCO)C4)nc32)cc1` [A247, (1R,3R)-3-[3-(4-ethoxy-phenyl)-3H-[1,2,3]triazolo[4,5-d]pyrimidin-5-ylamino]-cyclopentanecarboxylic acid (2-hydroxy-ethyl)-amide]: the IC50 in assay [1], in assay [2], in assay [3] and in assay [4] was below 1000 nM throughout.
`Cc1ccc2cc(-n3nnc4cnc(N[C@@H]5CC[C@@H](C(=O)NCC6CCN(C)CC6)C5)nc43)ccc2n1` [A252, (1R,3R)-3-[3-(2-methyl-quinolin-6-yl)-3H-[1,2,3]triazolo[4,5-d]pyrimidin-5-ylamino]-cyclopentanecarboxylic acid (1-methyl-piperidin-4-ylmethyl)-amide]: the IC50 was below 1000 nM in assay [1], 1000 to 5000 nM in assay [2], below 1000 nM in assay [3] and below 1000 nM in assay [4].
As to `NC(=O)[C@@H]1CC[C@@H](Nc2ncc3nnn(-c4ccc(N5CCOCC5)c(F)c4)c3n2)C1` [A158, (1R,3R)-3-[3-(3-fluoro-4-morpholin-4-yl-phenyl)-3H-[1,2,3]triazolo[4,5-d]-pyrimidin-5-ylamino]-cyclopentanecarboxylic acid amide], the IC50 is below 1000 nM in assay [1], 5000 to 10000 nM in assay [2], below 1000 nM in assay [3] and below 1000 nM in assay [4].
In the case of `COc1ccc(-n2nnc3cnc(N[C@@H]4CC[C@@H](C(N)=O)C4)nc32)cc1F` [A152, (1R,3R)-3-[3-(3-fluoro-4-methoxy-phenyl)-3H-[1,2,3]triazolo[4,5-d]pyrimidin-5-ylamino]-cyclopentanecarboxylic acid amide], the IC50 in assay [1] was below 1000 nM; in assay [2] it was 1000 to 5000 nM; in assay [3], below 1000 nM; in assay [4] it was below 1000 nM.
Turning to `COCCn1cc(-c2ccc(-n3nnc4cnc(N[C@@H]5CC[C@@H](C(N)=O)C5)nc43)cc2C)cn1` [A230, (1R,3R)-3-(3-{4-[1-(2-methoxy-ethyl)-1H-pyrazol-4-yl]-3-methyl-phenyl}-3H-[1,2,3]triazolo[4,5-d]pyrimidin-5-ylamino)-cyclopentanecarboxylic acid amide], the IC50 in assay [1] was below 1000 nM; in assay [2], 1000 to 5000 nM; in assay [3] it was below 1000 nM; in assay [4] it was below 1000 nM.
For the compound `CC(C)(O)c1ccc(-n2nnc3cnc(N[C@@H]4CC[C@@H](C(N)=O)C4)nc32)cc1` [A289, (1R,3R)-3-{3-[4-(1-hydroxy-1-methyl-ethyl)-phenyl]-3H-[1,2,3]triazolo[4,5-d]pyrimidin-5-ylamino}-cyclopentanecarboxylic acid amide], the IC50 in assay [1], in assay [3] and in assay [4] was below 1000 nM throughout.
In the case of `COCCn1cc(-c2cccc(-n3nnc4cnc(N[C@@H]5CC[C@@H](C(N)=O)C5)nc43)c2)cn1` [A222, (1R,3R)-3-(3-{3-[1-(2-methoxy-ethyl)-1H-pyrazol-4-yl]-phenyl}-3H-[1,2,3]triazolo[4,5-d]pyrimidin-5-ylamino)-cyclopentanecarboxylic acid amide], the IC50 in assay [1], in assay [3] and in assay [4] was below 1000 nM throughout.
As to `CCOc1ccc(-n2nnc3cnc(N[C@@H]4CC[C@@H](c5nnc(C)o5)C4)nc32)cc1` [A281, [3-(4-ethoxy-phenyl)-3H-[1,2,3]triazolo[4,5-d]pyrimidin-5-yl]-[(1R,3R)-3-(5-methyl-[1,3,4]oxadiazol-2-yl)-cyclopentyl]-amine], the IC50 in assay [1], in assay [3] and in assay [4] was below 1000 nM throughout.
For `CC(C)(O)Cn1cc(-c2ccc(-n3nnc4cnc(N[C@@H]5CC[C@@H](C(N)=O)C5)nc43)cc2)cn1` [A233, (1R,3R)-3-(3-{4-[1-(2-hydroxy-2-methyl-propyl)-1H-pyrazol-4-yl]-phenyl}-3H-[1,2,3]triazolo[4,5-d]pyrimidin-5-ylamino)-cyclopentanecarboxylic acid amide], the IC50 in assay [1], in assay [3] and in assay [4] was below 1000 nM throughout.
